Results published in patent US20240269104A1, “METHOD FOR TREATING PARKINSON'S DISEASE” (Olatec Therapeutics, Inc., priority 2021, published 2024).

Columns and labels:
[1] = system: MPTP-injected-mouse model of PD; assay: accelerating rotarod test after MPTP-acute administration; assay type: in vivo, C56BL/J mice; settings: anakinra 20 mg/kg intraperitoneal 30 minutes before MPTP; day 3
Description: MPTP (Sigma-Aldrich, St. Louis, MO) can be administered at two dose regimens: acute and sub-acute. For the acute regimen, MPTP was administered intraperitoneally (i.p.) four times in one day. Administrations were performed every two hours over an eight-hour period. For the subacute regimen, mice received a single i.p. administration of MPTP per day for five consecutive days. A 20 mg/kg free-base MPTP dose was used for every dose in both models. Sterile saline was used as the vehicle. Control mice were injected with saline solution using the same administration protocol and were defined as sham. Mice were sacrificed at different days after the first injection of MPTP. We used the acute protocol in C56BL/J mice to study dopamine neurodegeneration, inflammation, and motor deficits, whereas the subacute model was used to evaluate α-synuclein aggregation in the following examples. […]
The accelerating rotarod (Ugo Basile, Gemonio, ITALY) was used to evaluate locomotor function in mice subjected to the MPTP-acute administration. An accelerating program was selected to detect locomotor impairments associated to MPTP (Keshet et al, J Comp Neurol 504:690-701, 2007; Rui et al., Int J Neuropsychopharmacol., 2020). We used a rotarod device with a cylinder rod of three centimeters in diameter. The mice underwent a training period of three consecutive days prior to MPTP administration. In each training session, mice were subjected to run at four constant speeds (10 rpm, 20 rpm, 30 rpm, and 40 rpm) for 150 seconds at each speed. If mice fell during that time, they were put back in the rotarod immediately. On the testing day, we used an increased-speed program. Mice were placed on the rotarod device for 150 seconds at 30 rpm as warm up. Immediately after 150 seconds, the accelerating session started, and the speed increased from 30 rpm to 70 rpm for 500 seconds. Time to fall was recorded. Accelerating sessions were repeated three times with a resting interval of five minutes between sessions. Average time to fall per mouse was calculated and used as final measurement.
We then evaluated the effect of dapansutrile. To avoid overloading animals with fluid (which can lead to fatal heart failure), dapansutrile was administered through oral gavage at 200 mg/kg in water. Dapansutrile was given 30 minutes before the first injection of MPTP. Mice treated with saline were used as control. We also included a sham-group that received saline through intraperitoneal injections instead of MPTP. […]

[2] = in vivo; cited from earlier work

Substance: anakinra: Interleukin-1 receptor antagonist (IL-1Ra), 17.3 kDa; differs from native human IL-1Ra by an added amino-terminal methionine and absence of glycosylation [reference compound]
- rotarod latency to fall versus control mice treated with saline [1]: the same latency to fall
- CSF penetration [2]: 0.2-0.3%
